Here are results for eleven compounds from ChEMBL document CHEMBL1201862, “PubChem BioAssay data set” (2004).

Among the test systems are A498; DU-145; HCT-116; HCT-15; Hs-578T; K562; MCF7; MDA-MB-435; Malme-3M; NCI-H460; NCI/ADR-RES; OVCAR-3; PC-3; SF-268; SF-539; TK-10; U-251; UACC-62; HOP-92; SR.
Assay in all cases: NCI tumour cell line growth inhibition, 48 h

Each structure is given as a SMILES string.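 All cell lines were grown in 96-well plates and treated with compound for 48 hours. GI50 is the concentration that inhibits growth by half.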 Active and inactive are the calls of the source. Cut-off read from the data, not from the text of the source: active = GI50 up to about 1.1 µM and inactive = higher.

Take `Cc1n2nc(N)sc2n[n+]1CC(=O)c1ccccc1`: the GI50 was > 100 µM (inactive) in the assay with A498; > 100 µM (inactive) in the assay with DU-145; > 100 µM (inactive) with HCT-116; greater than 100 µM with HCT-15; > 100 µM (inactive) with Hs-578T; > 100 µM (inactive) with K562. Further, the GI50 in the assay with MCF7, in the assay on MDA-MB-435, in the assay on Malme-3M, in the assay on NCI-H460, in the assay on NCI/ADR-RES and in the assay with OVCAR-3 was > 100 µM (inactive) throughout. In addition, the GI50 with PC-3 is > 100 µM (inactive); with SF-268, > 100 µM (inactive); in the assay with SF-539 it was > 100 µM (inactive); with TK-10, > 100 µM (inactive); in the assay on U-251, > 100 µM (inactive); in the assay on UACC-62 it was 14 µM (inactive).
`CC1OC(OC2C(OC(=O)[C@]34CCC(C)(C)C[C@H]3C3=CC[C@@H]5[C@@]6(C)CC[C@H](OC7OC(C(=O)O)C(O)C(O)C7O)C(C)(C)[C@@H]6CC[C@@]5(C)[C@]3(C)C[C@H]4O)OCC(O)C2O)C(O)C(OC2OCC(O)(CO)C2O)C1OC1OCC(O)C(O)C1O` (stereo partly specified): the GI50 with A498 is 1.83 µM (inactive); in the assay on DU-145, 12.9 µM (inactive); in the assay with HCT-116 it was 7.19 µM (inactive); in the assay on HCT-15 it was 16.4 µM; with HOP-92, 12.1 µM (inactive); in the assay on Hs-578T, 20.3 µM (inactive). For the same compound, the GI50 in the assay on K562 was 10.3 µM (inactive); with MCF7, 6.17 µM (inactive); in the assay on MDA-MB-435, 6.59 µM (inactive); with Malme-3M it was 11.6 µM (inactive); in the assay on NCI-H460, 18.2 µM (inactive); in the assay on NCI/ADR-RES it was 13.3 µM (inactive). In addition, the GI50 in the assay on OVCAR-3 was 14 µM (inactive); in the assay with PC-3 it was 8.55 µM (inactive); in the assay on SF-268, 17.9 µM (inactive); in the assay on SR, 3.94 µM (inactive); in the assay on U-251, 9.64 µM (inactive); in the assay on UACC-62, 16 µM (inactive).
With `COC(=O)c1ccc(/C=C2\Oc3ccccc3C2=O)cc1`, the GI50 in the assay with DU-145 is > 100 µM (inactive); in the assay on HCT-116, > 100 µM (inactive); in the assay on HCT-15 it was greater than 100 µM; in the assay on Hs-578T, > 100 µM (inactive); with K562, > 10 µM (inactive); in the assay on MCF7 it was > 100 µM (inactive). For the same compound, the GI50 in the assay with MDA-MB-435, in the assay with NCI-H460, in the assay with NCI/ADR-RES, in the assay with OVCAR-3, in the assay on PC-3 and in the assay on SF-268 was > 100 µM (inactive) throughout. Also, the GI50 in the assay with SF-539, in the assay with SR, in the assay on TK-10, in the assay on U-251 and in the assay on UACC-62 was > 100 µM (inactive) in each case.
On to `Nc1ccccc1N/C(=C\C(=O)C(Cl)(Cl)Cl)c1ccccc1`, for which the GI50 was 38.8 µM (inactive) with DU-145; 16.1 µM (inactive) in the assay with HCT-116; 25.4 µM in the assay on HCT-15; 14.5 µM (inactive) in the assay with HOP-92; 29.6 µM (inactive) in the assay with Hs-578T; 30.2 µM (inactive) in the assay on K562. For the same compound, the GI50 is 23.7 µM (inactive) in the assay with MCF7; 30.9 µM (inactive) in the assay on MDA-MB-435; 16.8 µM (inactive) in the assay with Malme-3M; 25.9 µM (inactive) in the assay on NCI-H460; 29.2 µM (inactive) with NCI/ADR-RES; 22.5 µM (inactive) in the assay with OVCAR-3. Further, the GI50 in the assay with PC-3 is 22.5 µM (inactive); with SF-268, 24.3 µM (inactive); in the assay with SF-539 it was 18.8 µM (inactive); in the assay on SR, 28.2 µM (inactive); in the assay on TK-10, 65 µM (inactive); in the assay on U-251, 16.8 µM (inactive). Also, in the assay on UACC-62, the GI50 is 17.5 µM (inactive).
With `CCOC(=O)C1CCC/C1=N\NC(=N)N.Cc1cc(O)c(C(C)C)cc1S(=O)(=O)O` (stereo unspecified), the GI50 with A498 is > 100 µM (inactive); in the assay with DU-145, > 100 µM (inactive); in the assay on HCT-116 it was > 100 µM (inactive); in the assay with HCT-15 it was greater than 100 µM; with Hs-578T it was > 100 µM (inactive); with K562, > 100 µM (inactive). For the same compound, the GI50 in the assay on MCF7, in the assay on MDA-MB-435, in the assay with Malme-3M, in the assay with NCI-H460, with NCI/ADR-RES and with OVCAR-3 was > 100 µM (inactive) in each case. Moreover, the GI50 with PC-3, in the assay with SF-268, in the assay on SF-539, with SR, in the assay with TK-10 and with U-251 was > 100 µM (inactive) each time. In the assay on UACC-62, the GI50 is > 100 µM (inactive).
For `N=c1oc2ccc3ccccc3c2cc1-c1nc(O)c2ccccc2n1`, the GI50 in the assay on DU-145 was 36.4 µM (inactive); in the assay with HCT-116 it was 24.4 µM (inactive); with HCT-15 it was 19.9 µM; with HOP-92 it was 15.1 µM (inactive); with Hs-578T, 20.5 µM (inactive); with K562, 19.7 µM (inactive). Besides, the GI50 is 14.4 µM (inactive) in the assay with MCF7; 58.3 µM (inactive) with MDA-MB-435; 23.4 µM (inactive) in the assay on Malme-3M; 32.8 µM (inactive) in the assay with NCI-H460; 14.2 µM (inactive) in the assay on NCI/ADR-RES; 13.4 µM (inactive) in the assay on PC-3. Moreover, the GI50 in the assay with SF-268 is 30.8 µM (inactive); with SF-539, 31.2 µM (inactive); in the assay with SR, 26.5 µM (inactive); with TK-10, 21 µM (inactive); in the assay on U-251 it was 19.2 µM (inactive); in the assay with UACC-62 it was 12.8 µM (inactive).
Regarding `COc1c2c(cc3c1C(=O)c1c(O)cccc1C3=O)CC(O)CC2` (stereo unspecified), the GI50 is 22.8 µM (inactive) in the assay on A498; 57.7 µM (inactive) in the assay with DU-145; 24.6 µM (inactive) with HCT-116; 35.8 µM in the assay on HCT-15; 18.7 µM (inactive) with HOP-92; 26.7 µM (inactive) in the assay on Hs-578T. For the same compound, the GI50 was > 100 µM (inactive) in the assay with K562; > 100 µM (inactive) in the assay with MCF7; > 100 µM (inactive) in the assay with MDA-MB-435; 49.8 µM (inactive) in the assay with Malme-3M; > 100 µM (inactive) with NCI-H460; 35.8 µM (inactive) in the assay with NCI/ADR-RES. Besides, the GI50 is > 100 µM (inactive) in the assay on OVCAR-3; 67.9 µM (inactive) with PC-3; 28.8 µM (inactive) in the assay with SF-539; 50.5 µM (inactive) in the assay with TK-10; 50.9 µM (inactive) in the assay on U-251; 28.5 µM (inactive) with UACC-62.
On to `N#Cc1cccc(Nc2ccccc2SSc2ccccc2Nc2cccc(C#N)c2)c1`, for which the GI50 was 9.89 µM (inactive) in the assay with A498; 19 µM (inactive) in the assay with DU-145; 9.06 µM (inactive) in the assay on HCT-116; 10.4 µM with HCT-15; 7.89 µM (inactive) in the assay with HOP-92; 6.97 µM (inactive) in the assay with Hs-578T. For the same compound, the GI50 in the assay with K562 was 5.12 µM (inactive); in the assay with MCF7 it was 7.52 µM (inactive); in the assay with MDA-MB-435 it was 8.69 µM (inactive); in the assay on Malme-3M it was 11 µM (inactive); in the assay on NCI-H460, 7.71 µM (inactive); in the assay with NCI/ADR-RES, 8.79 µM (inactive). Also, the GI50 in the assay with OVCAR-3 is 9.12 µM (inactive); in the assay with PC-3 it was 4.82 µM (inactive); in the assay on SF-268 it was 4.93 µM (inactive); in the assay with SF-539, 8.79 µM (inactive); in the assay with TK-10, 19.3 µM (inactive); in the assay on U-251, 5.92 µM (inactive). In addition, the GI50 in the assay on UACC-62 is 7.1 µM (inactive).
Turning to `O=C1/C(=C\c2ccc([N+](=O)[O-])cc2)N(S(=O)(=O)c2ccccc2)c2ncccc21`, the GI50 in the assay with DU-145 is 27.5 µM (inactive); in the assay with HCT-116 it was 18.2 µM (inactive); in the assay with HCT-15, 15.7 µM; with Hs-578T, 31.2 µM (inactive); with K562, 3.55 µM (inactive); in the assay on MCF7, 24.7 µM (inactive). The GI50 in the assay on MDA-MB-435 is 21.4 µM (inactive); in the assay on Malme-3M, 18.2 µM (inactive); in the assay on NCI-H460 it was 18.7 µM (inactive); in the assay on NCI/ADR-RES, 23.9 µM (inactive); in the assay with OVCAR-3, 12.2 µM (inactive); with PC-3, 14 µM (inactive). In addition, the GI50 with SF-268 is 23.1 µM (inactive); with SF-539, 24.8 µM (inactive); in the assay with SR, 3.33 µM (inactive); in the assay with TK-10 it was 17.5 µM (inactive); in the assay on U-251, 18.2 µM (inactive); with UACC-62, 9.23 µM (inactive).
Consider `c1ccc2nc(CCC3CCCCN3)ccc2c1` (stereo unspecified), for which the GI50 was 77.6 µM (inactive) in the assay with A498; > 100 µM (inactive) in the assay on DU-145; > 100 µM (inactive) with HCT-116; greater than 100 µM with HCT-15; > 100 µM (inactive) in the assay on HOP-92; > 100 µM (inactive) in the assay on Hs-578T. The GI50 with K562 is 47.4 µM (inactive); with MCF7, > 100 µM (inactive); in the assay on MDA-MB-435 it was 97.7 µM (inactive); in the assay with Malme-3M, 91.4 µM (inactive); with NCI-H460 it was 87.9 µM (inactive); with NCI/ADR-RES, 49.5 µM (inactive). For the same compound, the GI50 is > 100 µM (inactive) in the assay with PC-3; > 100 µM (inactive) with SF-268; 68.5 µM (inactive) in the assay on SR; > 100 µM (inactive) with TK-10; > 100 µM (inactive) in the assay with U-251; > 100 µM (inactive) in the assay on UACC-62.
Regarding `S=C(S)NCNC(=S)S`, the GI50 was 89.7 µM (inactive) with A498; > 100 µM (inactive) in the assay with DU-145; > 100 µM (inactive) in the assay on HCT-116; greater than 100 µM in the assay on HCT-15; > 100 µM (inactive) in the assay with HOP-92; > 100 µM (inactive) in the assay on Hs-578T. Moreover, the GI50 in the assay with K562, in the assay with MCF7, with MDA-MB-435, with Malme-3M, in the assay on NCI-H460 and in the assay with NCI/ADR-RES was > 100 µM (inactive) in each case. For the same compound, the GI50 with OVCAR-3, in the assay on PC-3, in the assay with SF-268, with SF-539, in the assay on TK-10 and in the assay with U-251 was > 100 µM (inactive) each time. The GI50 in the assay with UACC-62 is > 100 µM (inactive).
